Test results as given in patent US20240043842A1, “MUSCLE RETENTION IN AGING AND DUCHENNE MUSCULAR DYSTROPHY (DMD) THROUGH S1P INHIBITION” (Washington University, priority 2022, published 2024).

How the values were obtained:
C2C12 cells [1] = assay: Western blot of phosphorylated Smad 2 and AKT in TGF-β1-treated C2C12 cells; format: cell-based, murine; conditions: TGF-β1-treated versus untreated cells, whole-cell lysates
Description: (§1) C2C12 cells were plated onto 6-well plates at a 2×10^5 density and 24 h later transfected with either negative control siRNA (Negative Control No. 1 siRNA, Life Technologies) or custom siRNAs targeting S1P (Silencer Select siRNAs, Life Technologies) using Lipofectamine RNAiMAX as per manufacturer's instructions. After 48 h, cells were either harvested for gene expression analysis or differentiated with DMEM supplemented with 2% horse serum. Two days after differentiation, cells were harvested for gene expression analysis. For TGF-β1 treatment studies, three days post-differentiation, cells were treated with 50 ng/ml TGF-β1 (R&D) for 5 h then harvested for downstream endpoints.
Skeletal muscle whole protein lysates were generated by homogenizing tissues in lysis buffer (20 mM Tris, 15 mM NaCl, 1 mM EDTA, 0.2% NP-40, and 10% glycerol) supplemented with 2× Protease Complete cocktail tablet (Roche) and 1× Phosphatase Inhibitors (Roche, Mannheim, Germany) with stainless steel beads in a TissueLyzer II (Qiagen). Protein lysates were rotated for 45 min at 4° C., followed by centrifugation at 15,000×g for 15 min at 4° C. Protein was quantified by bicinchoninic acid assay (BCA, Pierce Biotechnology), equal amounts of protein were resolved on a 4-15 SDS-PAGE gradient gel (Bio-Rad), and transferred to PVDF-FL membrane (MilliporeSigma). […]

C2C12 cells [2] = assay: MSS51 expression by qPCR in C2C12 cells treated with vehicle or TGF-β1; format: cell-based, murine; conditions: scrambled and S1P-depleted C2C12 cells, 50 ng/ml for 5 h, versus vehicle
Description: Total RNA was isolated from C2C12 cells, skeletal muscle, heart, adipose, kidney, and liver with RNA STAT-60 (Tel-Test Inc) as per manufacturer's instructions. For tissues, RNA was isolated by disrupting tissue in RNA STAT-60 using […] (Qiagen) and a TissueLyser II (Qiagen). RNA was reverse transcribed into cDNA using the High-Capacity cDNA Reverse Transcription Kit (Applied Biosystems). Quantitative real-time PCR was performed using Power SYBR green (Applied Biosystems) and transcripts quantified on an ABI QuantiStudio 3 sequence detection system (Applied Biosystems). Data was normalized to 36B4 expression, unless otherwise noted, and results analyzed using the 2^−ΔΔCt method and reported as relative units to controls.
as §1, with “For TGF-β1 treatment studies, three days post-differentiation, cells were treated with 50 ng/ml TGF-β1 (R&D) for 5 h then harvested for downstream endpoints.” left out

## TGF-β1: recombinant TGF-β1 (R&D) used to treat C2C12 cells
C2C12 cells [1]
  Smad 2 phosphorylation induced by TGF-β1: induced
C2C12 cells [2]
  MSS51 expression in the presence of TGF-β1: increased
